Test results from US20100173918A1, “METHODS AND COMPOSITIONS FOR DETERMINING THE EFFICACY OF BREAST CANCER THERAPEUTICS” (TARGETED MOLECULAR DIAGNOSTICS, LLC, priority 2007, published 2010).
Where “and” joins values, the source holds several entries; their conditions need not be identical. Equal entries are not always repeated.

What was measured:
[1] = EGF103009 study of lapatinib monotherapy: safety / adverse events; type: in vivo, human
[2] = tested on: patients with IBC (inflammatory breast cancer); assay: EGF103009 open-label study of lapatinib monotherapy: clinical response (skin criteria / RECIST) and progression-free survival; type: in vivo, human; parameters: key to RECIST Response: CR: complete response; PR: partial response; SD: stable disease; conditions: for RECIST Response / Skin Response: individual patient, lapatinib 1,500 mg once daily
Text: Patients: Eligible adults (18 years of age) had histologically confirmed IBC (Inflammatory breast cancer) and a clinical diagnosis of IBC (e.g., presence of diffuse erythema and edema [peau d'orange], with or without an underlying palpable mass, involving the majority of the skin of the breast). Pathologic evidence of dermal lymphatic invasion was not required. […] EGF103009 was approved by the institutional review board from each participating institution, and written informed consent was obtained from all patients.
Tumor biomarkers were analyzed in a blinded manner at a central Clinical Laboratory Improvement Amendments—certified College of American Pathology reference laboratory (Targeted Molecular Diagnostics, Westmont, Ill.) (Spector N. L., et al., J Clin Oncol 23:2502-2512 (2005)). […] The study design consisted of two stages; two responses were required in the first fifteen patients in either cohort before an additional fifteen patients were enrolled in that cohort (Green-Dahlberg design).
Patients underwent regular physical examinations and evaluations of performance status, body weight, CBC, serum chemistry, left ventricular ejection fraction by multiple gated acquisition scan or echocardiogram, and if applicable, digital photography to evaluate changes in chest wall/[…] disease or assessment by imaging studies, computed tomography scan or magnetic resonance imaging.
Efficacy and Safety Evaluation: Clinical response was assessed at 4-week intervals and imaging performed at 8-week intervals until disease progression or withdrawal from study. […] Toxicity was graded according to the National Cancer Institute Common Terminology Criteria (NC1-CTCAE), version 3.0.
Statistical Analysis: The statistical focus of the study was to test the null hypothesis that the overall response rate (ORR) is no more than 15% versus the alternative hypothesis that this rate is at least 40%. Each cohort consisted of two stages, such that if there were fewer than two responses at the end of stage 1 (15 patients), then the cohort would be closed in favor of the null hypothesis. […] Kaplan-Meier estimates of progression-free survival ([…]) were computed separately for cohort A and B. For this exploratory analysis, there were no statistical comparisons made between cohorts.

[3] = N = 45, >20% decrease in LVEF, asymptomatic and/or below lower limit of normal
[4] = N = 45, mostly musculoskeletal pain (76% of cases)
[5] = N = 45, one report of rash was not graded
[6] = Cohort A (HER-2 overexpressing IBC)
[7] = Cohort B (EGFR expression without HER-2 overexpression)

## CS(=O)(=O)CCNCc1ccc(-c2ccc3ncnc(Nc4ccc(OCc5cccc(F)c5)c(Cl)c4)c3c2)o1 [lapatinib, Lapatinib ditosylate]
[1]; N = 45
  Anemia, Grade > 3 %: 4%
  Anemia, Grade > 3 No.: 2
  Anemia, Total %: 7%
  Anemia, Total No. of Patients: 3
  Anorexia, Grade > 3 %: 2%
  Anorexia, Grade > 3 No.: 1
  Anorexia, Total %: 22%
  Anorexia, Total No. of Patients: 10
  Constipation, Grade > 3 %: 0%
  Constipation, Grade > 3 No.: 0
  Constipation, Total %: 7%
  Constipation, Total No. of Patients: 3
  Decreased LVEF, Grade > 3 %: 0%
  Decreased LVEF, Grade > 3 No.: 0
  Diarrhea, Grade > 3 %: 11%
  Diarrhea, Grade > 3 No.: 5
  Diarrhea, Total %: 60%
  Diarrhea, Total No. of Patients: 27
  Dyspnea, Grade > 3 %: 11%
  Dyspnea, Grade > 3 No.: 5
  Dyspnea, Total %: 20%
  Dyspnea, Total No. of Patients: 9
  Edema, Grade > 3 %: 2%
  Edema, Grade > 3 No.: 1
  Edema, Total %: 13%
  Edema, Total No. of Patients: 6
  Elevated ALT/AST, Grade > 3 %: 4%
  Elevated ALT/AST, Grade > 3 No.: 2
  Elevated ALT/AST, Total %: 7%
  Elevated ALT/AST, Total No. of Patients: 3
  Elevated alkaline phosphatase, Grade > 3 %: 0%
  Elevated alkaline phosphatase, Grade > 3 No.: 0
  Elevated alkaline phosphatase, Total %: 9%
  Elevated alkaline phosphatase, Total No. of Patients: 4
  Fatigue, Grade > 3 %: 0%
  Fatigue, Grade > 3 No.: 0
  Fatigue, Total %: 24%
  Fatigue, Total No. of Patients: 11
  Hyperbilirubinemia, Grade > 3 %: 2%
  Hyperbilirubinemia, Grade > 3 No.: 1
  Hyperbilirubinemia, Total %: 9%
  Hyperbilirubinemia, Total No. of Patients: 4
  Infection, Grade > 3 %: 4%
  Infection, Grade > 3 No.: 2
  Infection, Total %: 13%
  Infection, Total No. of Patients: 6
  Nausea, Grade > 3 %: 0%
  Nausea, Grade > 3 No.: 0
  Nausea, Total %: 24%
  Nausea, Total No. of Patients: 11
  Pain, Grade > 3 %: 16%
  Pain, Grade > 3 No.: 7
  Pleural effusion, Grade > 3 %: 9%
  Pleural effusion, Grade > 3 No.: 4
  Pleural effusion, Total %: 11%
  Pleural effusion, Total No. of Patients: 5
  Pruritus, Grade > 3 %: 0%
  Pruritus, Grade > 3 No.: 0
  Pruritus, Total %: 11%
  Pruritus, Total No. of Patients: 5
  Rash, Grade > 3 %: 0%
  Rash, Grade > 3 No.: 0
  Vomiting, Grade > 3 %: 0%
  Vomiting, Grade > 3 No.: 0
  Vomiting, Total %: 20%
  Vomiting, Total No. of Patients: 9
  grade ½ diarrhea: 49%
  grade ½ musculoskeletal pain: 42%
  grade ½ skin rash: 36%
[1]; [3]
  Decreased LVEF, Total %: 7%
  Decreased LVEF, Total No. of Patients: 3
[1]; [4]
  Pain, Total %: 58%
  Pain, Total No. of Patients: 26
[1]; [5]
  Rash, Total %: 36%
  Rash, Total No. of Patients: 16
[1]; both cohorts
  tolerability of lapatinib monotherapy: generally well tolerated
[2]; cohort A
  time by which all responses in the skin occurred (first assessment): ≤ 4 week
[2]; cohort A, 15 patients with prior trastuzumab
  patients with response to lapatinib among those who received prior trastuzumab therapy: six
[2]; cohort A, HER-2+ IBC, n = 30
  patients who experienced response: 15 of 30
[2]; cohort A, n = 30
  patients whose best clinical response was a CR in chest wall/skin or RECIST-measurable lesions: 7%
  patients with a PR in chest wall/skin and/or RECIST-measurable lesions as best response: 43%
[2]; cohort A, tumors coexpressing pHER-2 and pHER-3
  patients who responded: nine of 10
[2]; cohort A, tumors not coexpressing pHER-2 and pHER-3
  patients who responded: four of 14
[2]; cohort A, median follow-up 15.3 weeks
  median PFS: 14 weeks
[2]; cohort B, n = 15
  patients with a clinical response (PR in skin/chest disease): one of 15
[2]; cohort B, median follow-up 4.1 weeks
  median PFS: 4 weeks
[2]; [6]
  RECIST Response: PR* (4×) and PR (3×) and SD (7×)
  Skin Response: PR (more than 50% decrease in extent of skin disease from baseline documented by digital photography)
[2]; [7]
  RECIST Response: SD
  Skin Response: PR (more than 50% decrease in extent of skin disease from baseline documented by digital photography)
